In publication PMC1839166, “Type III Effector Activation via Nucleotide Binding, Phosphorylation, and Host Target Interaction” (PLoS Pathogens, 2007):

Molecular target: T1, AvrB (Pseudomonas savastanoi, UniProt P13835)
T1 construct: recombinant in E. coli BL21 Rosetta from pProEX-HTa; N-terminal His tag removed with TEV protease; residues 16 to 319 modelled in the ADP complex; 36 kDa
Test: X-ray crystallography, crystal soak
Format: binding
Conditions: 5 mM nucleotide soak about 1 d, pH 7.5, with and without 5 mM MgCl2; lower lobe pocket (Y65, R99, R266)

T1 sequence (P13835 whole entry, the tested form may be a part): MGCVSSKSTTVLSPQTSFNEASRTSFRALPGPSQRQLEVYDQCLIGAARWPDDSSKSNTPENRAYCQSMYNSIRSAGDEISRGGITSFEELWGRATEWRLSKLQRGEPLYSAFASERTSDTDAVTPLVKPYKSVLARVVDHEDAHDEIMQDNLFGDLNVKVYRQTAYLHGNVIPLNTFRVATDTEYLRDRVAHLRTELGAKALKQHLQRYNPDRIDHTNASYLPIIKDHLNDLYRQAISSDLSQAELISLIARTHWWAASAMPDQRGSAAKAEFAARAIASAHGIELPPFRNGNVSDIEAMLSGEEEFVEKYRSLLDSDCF

Nc1ncnc2c1ncn2[C@@H]1O[C@H](COP(=O)(O)OP(=O)(O)O)[C@@H](O)[C@H]1O [ADP]
X-ray crystallography, crystal soak: We found that crystallized AvrB could bind ADP within the lower lobe pocket
